Literature values in patent publication US8263645B2, “Disodium cromoglycate compositions and methods for administering same” (PARI Pharma GmbH, priority 2006, dated 2012).
Like-named read-outs stand apart in the source and are kept apart here.

Assays:
[1] = test system: intermediate conductance chloride channels; settings: channels activated following immunological stimulation
[2] = timed urine collections

O=C([O-])c1cc(=O)c2c(OCC(O)COc3cccc4oc(C(=O)[O-])cc(=O)c34)cccc2o1.[Na+].[Na+] [DSCG, disodium cromoglycate]
chloride channel block [1]: block intermediate conductance chloride channels
lung deposition ([2]; 20 mg DSCG via Acron nebulizer (MMD=4.5 μm)): 1.5%
lung deposition ([2]; 20 mg DSCG via pMDI): 0.3%
histamine release (rat mast cells; following antigen challenge): inhibition of histamine release
influx of calcium ions (rat mast cells; rat mast cells): inhibited the influx of calcium ions
